According to ChEMBL document CHEMBL4837253, “Structure-Based Discovery of Proline-Derived Arginase Inhibitors with Improved Oral Bioavailability for Immuno-Oncology” (ACS Med Chem Lett, 2021):
Activity calls are given as the source filed them. The rule behind the calls is not given here.

Key:
Arginase-1 [1] = target: T1, Arginase-1 (Homo sapiens, UniProt P05089); experiment: Inhibition of human recombinant ARG1 expressed in Escherichia coli using thioarginine as a substrate preincubated for 30 mins followed by substrate addition and incubated for 60 mins by fluorescence based arginine thio ornithine generating assay
T1 sequence (P05089 whole entry): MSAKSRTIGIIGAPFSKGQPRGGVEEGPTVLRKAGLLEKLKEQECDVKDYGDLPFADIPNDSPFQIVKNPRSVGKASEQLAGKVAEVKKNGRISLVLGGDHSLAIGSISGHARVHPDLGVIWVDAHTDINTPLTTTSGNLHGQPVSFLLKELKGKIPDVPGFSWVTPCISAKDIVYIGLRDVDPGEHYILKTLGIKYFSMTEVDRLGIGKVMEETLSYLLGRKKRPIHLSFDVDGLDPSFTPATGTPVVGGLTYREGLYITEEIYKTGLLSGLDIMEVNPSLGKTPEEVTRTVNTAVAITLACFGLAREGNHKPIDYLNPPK

EMT6 [2] = experiment: In vivo inhibition of […] in EMT6 tumor bearing BALB/c mouse assessed as elevated arginine levels in tumor measured after 2 days; assay type: functional, organism-based; conditions: time 2.0 day
[3] = Drug uptake in serum of EMT6 tumor bearing BALB/c mouse at 30 to 300 mg/kg, po administered twice daily measured after 2 days; assay type: ADME, organism-based; conditions: in vivo, 48 h, dose 30-300 mg/kg, time 2 day
EMT6 [4] = experiment: In vivo inhibition of […] in EMT6 tumor bearing BALB/c mouse assessed as elevated arginine levels in tumor at 250 mg/kg, po administered twice daily measured after 14 days; assay type: functional, organism-based; conditions: Neoplasm, time 14.0 day
[5] = Oral bioavailability in Wister Han rat at 10 mg/kg; assay type: ADME, organism-based; conditions: in vivo
[6] = Oral bioavailability in C57BL/6 mouse at 10 mg/kg; assay type: ADME, organism-based; conditions: in vivo
Arginase-1 [7] = target: T1, Arginase-1; experiment: Inhibition of human ARG1 in HEK293 cells by cell based assay
EMT6 [8] = experiment: In vivo inhibition of […] in EMT6 tumor bearing BALB/c mouse assessed as elevated arginine levels in tumor in the presence of mouse anti-PD-1 mAb at 250 mg/kg, po administered twice daily measured after 14 days; assay type: functional, organism-based; conditions: Neoplasm, time 14.0 day
EMT6 [9] = experiment: In vivo inhibition of […] in EMT6 tumor bearing BALB/c mouse assessed as elevated arginine levels in serum measured after 2 days; assay type: functional, organism-based; conditions: time 2.0 day
EMT6 [10] = experiment: In vivo inhibition of […] in EMT6 tumor bearing BALB/c mouse assessed as elevated arginine levels in serum at 250 mg/kg, po administered twice daily measured after 14 days; assay type: functional, organism-based; conditions: time 14.0 day
[11] = Toxicity in EMT6 tumor bearing BALB/c mouse assessed as change in body weight at 30 to 300 mg/kg, po administered twice daily measured up to 14 days; assay type: organism-based; conditions: in vivo, 336 h, dose 30-300 mg/kg, time <=14 day
EMT6 [12] = experiment: In vivo inhibition of […] in EMT6 tumor bearing BALB/c mouse assessed as elevated arginine levels in serum in the presence of mouse anti-PD-1 mAb at 250 mg/kg, po administered twice daily measured after 14 days; assay type: functional, organism-based; conditions: time 14.0 day
[13] = Drug uptake in tumor of EMT6 tumor bearing BALB/c mouse at 30 to 300 mg/kg, po administered twice daily measured after 2 days; assay type: ADME, organism-based, Neoplasm; conditions: in vivo, 48 h, dose 30-300 mg/kg, time 2 day
[14] = Metabolic stability in C57BL/6 mouse hepatocytes assessed as hydrolysis product of (2S,3R,4R)-4-amino-3-(3-boronopropyl)pyrrolidine-2-carboxylic acid measured; assay type: ADME, cell-based, Hepatocyte
[15] = Stability in C57BL/6 mouse hepatocytes; assay type: ADME, cell-based, Hepatocyte
[16] = Oral bioavailability in C57BL/6 mouse in the presence of compound 18 at 10 mg/kg; assay type: ADME, organism-based; conditions: in vivo

SMILES | IC50 (Arginase-1 [1]) [nM] | bioavailability [5] [%] | bioavailability [6] [%] | EC50 (Arginase-1 [7]) [nM] | also measured
O=C(O)C1CC(CCB(O)O)CN1 (racemic) | 8730 |  |  |  | 
O=C(O)[C@H]1NCC[C@H]1CCCB(O)O | 16 | 25 | 43 | 3400 | Activity (EMT6 [2]): Dose-Dependent Effect; Drug uptake [3]: Active; inhibition (EMT6 [4]): Active; inhibition (EMT6 [8]): Active; Activity (EMT6 [9]): Dose-Dependent Effect; inhibition (EMT6 [10]): Active; Activity [11]: Non-Toxic; inhibition (EMT6 [12]): Active; Drug uptake [13]: Active
NC[C@@H]1C[C@@H](CCCB(O)O)[C@@H](C(=O)O)N1 | 30 | 51 | 44 | 16000 | 
O=C(O)[C@@]1(CCN2CCCCC2)NCC[C@H]1CCCB(O)O | 70 | 2.7 | 8.5 | > 30000 | 
O=C(O)[C@H]1NCC[C@@H]1CCCB(O)O |  | 34 | 44 |  | 
O=C(O)[C@H]1N[C@H](CO)C[C@H]1CCCB(O)O | 8 | 12 | 12 | 4200 | 
O=C(O)[C@H]1NC[C@H](NCC(F)(F)F)[C@H]1CCCB(O)O |  |  | 10 |  | 
N[C@H]1CN[C@H](C(=O)O)[C@@H]1CCCB(O)O | 3 |  | 14 | 20000 | 
O=C(O)[C@H]1NC[C@H]1CCCB(O)O |  |  | 42 |  | 
CN(C)[C@H]1CN[C@H](C(=O)O)[C@@H]1CCCB(O)O | 66 |  | 17 |  | 
C[C@H](N)C(=O)N[C@H]1CN[C@H](C(=O)O)[C@@H]1CCCB(O)O | 11 |  | 3 |  | Drug metabolism [14]: Metabolite_Detected; Stabilty [15]: Unstable; bioavailability [16]: 27%
CC(C)[C@H](N)C(=O)N[C@H]1CN[C@H](C(=O)O)[C@@H]1CCCB(O)O | 2 |  | 13 |  | Stabilty [15]: Unstable
CN[C@H]1CN[C@H](C(=O)O)[C@@H]1CCCB(O)O |  |  | 11 |  | 
O=C(O)[C@H]1NC[C@H](O)[C@H]1CCCB(O)O | 4 | 12 | 41 | 6900 | 
C[C@@]1(CCCB(O)O)CCN[C@@H]1C(=O)O | 33 | 9 | 19 | 6300 | 
C[C@@H]1C[C@@H](CCCB(O)O)[C@@H](C(=O)O)N1 | 7 |  | 31 | 2800 | 
NC[C@@]1(CCCB(O)O)CCN[C@@H]1C(=O)O | 5 |  |  | 14000 | 
CO[C@H]1CN[C@H](C(=O)O)[C@@H]1CCCB(O)O |  |  |  | 28000 | 
O=C(O)[C@H]1NC[C@@H]1CCCB(O)O |  |  | 50 |  | 
O=C(O)[C@H]1NCC[C@@]1(CO)CCCB(O)O | 19 | 39 | 34 | 11000 | 
O=C(O)[C@H]1NCCO[C@H]1CCCB(O)O |  | 10 | 14 |  | 
CC(C)(C)[C@H](N)C(=O)N[C@H]1CN[C@H](C(=O)O)[C@@H]1CCCB(O)O | < 1 |  | 34 |  | 
CC(C)[C@@H](N)C(=O)N[C@H]1CN[C@H](C(=O)O)[C@@H]1CCCB(O)O | 34 |  |  |  | 
CN[C@H](C(=O)N[C@H]1CN[C@H](C(=O)O)[C@@H]1CCCB(O)O)C(C)C | 5 |  | 4.6 |  | 
